Assay results reported in patent publication US20150164762A1, “USE OF ETHANOLAMINE PHOSPHATE” (priority 2012, published 2015).

Tested on: BEAS-2B
Assay: Comprehensive gene expression analysis with Whole Human Genome DNA microarray after EP treatment
Type: cell-based
Protocol: Cells of the established normal human airway epithelial cell line BEAS-2B were used in the experiment. These cells were expansively cultured in 10% FBS RPMI-1640, and seeded at a density of 1×10^5/cm^2 on a 24-well plate. After 24 hours 0.1% FBS RPMI-1640 was substituted, and EP was administered to a final concentration of 0 or 1 mM (n=4). After 24 hours, the cells were used as the DNA microarray samples. RNA was extracted using a QIAGEN RNeasy Mini Kit. The DNA microarray test was performed using a Whole Human Genome DNA microarray 4×44K (Agilent), and the necessary labeling reagents and the like for the DNA microarray test were all from Agilent. The DNA microarray test data were analyzed statistically with GeneSpring (Agilent) dedicated analysis software, and gene function analysis (Gene Ontology (GO) analysis) was performed based on differential expression. The purpose of the GO analysis is to determine stochastically the degree to which gene sets with statistically significant differential expression correspond to known functional classification gene sets. […] The p-value is calculated according to the following formula.

NCCOP(=O)(O)O [EP, Ethanolamine phosphate]
expression of cytokines (1 mM EP, 24 h): reduced expression of many cytokines
R*: Ratio to control (AEN, probe A_23_P206077): 0.420 times
log2 [ratio] (AEN, probe A_23_P206077): −1.253
R*: Ratio to control (AGGF1, probe A_23_P250554): 1.523 times
log2 [ratio] (AGGF1, probe A_23_P250554): 0.607
R*: Ratio to control (AIFM2, probe A_32_P75094): 0.399 times
log2 [ratio] (AIFM2, probe A_32_P75094): −1.327
R*: Ratio to control (AIFM3, probe A_23_P258194): 0.590 times
log2 [ratio] (AIFM3, probe A_23_P258194): −0.761
R*: Ratio to control (ANXA2, probe A_23_P146644): 1.673 times
log2 [ratio] (ANXA2, probe A_23_P146644): 0.742
R*: Ratio to control (ANXA2, probe A_32_P94798): 1.614 times
log2 [ratio] (ANXA2, probe A_32_P94798): 0.691
R*: Ratio to control (APAF1, probe A_23_P36611): 0.420 times
log2 [ratio] (APAF1, probe A_23_P36611): −1.253
R*: Ratio to control (APPL1, probe A_24_P302833): 1.723 times
log2 [ratio] (APPL1, probe A_24_P302833): 0.785
R*: Ratio to control (ARHGAP24, probe A_23_P110151): 1.670 times
log2 [ratio] (ARHGAP24, probe A_23_P110151): 0.740
R*: Ratio to control (ARHGAP24, probe A_24_P388659): 1.745 times
log2 [ratio] (ARHGAP24, probe A_24_P388659): 0.803
R*: Ratio to control (ARHGEF6, probe A_23_P85024): 0.270 times
log2 [ratio] (ARHGEF6, probe A_23_P85024): −1.889
R*: Ratio to control (BAK1, probe A_23_P145357): 0.402 times
log2 [ratio] (BAK1, probe A_23_P145357): −1.313
R*: Ratio to control (BAX, probe A_23_P208706): 0.453 times
log2 [ratio] (BAX, probe A_23_P208706): −1.143
R*: Ratio to control (BAX, probe A_23_P346311): 0.511 times
log2 [ratio] (BAX, probe A_23_P346311): −0.969
R*: Ratio to control (BBC3, probe A_23_P382775): 0.315 times
log2 [ratio] (BBC3, probe A_23_P382775): −1.666
R*: Ratio to control (BBC3, probe A_24_P305312): 0.366 times
log2 [ratio] (BBC3, probe A_24_P305312): −1.452
R*: Ratio to control (BCAT1, probe A_24_P935986): 1.721 times
log2 [ratio] (BCAT1, probe A_24_P935986): 0.783
R*: Ratio to control (BCL2L11, probe A_24_P122921): 0.636 times
log2 [ratio] (BCL2L11, probe A_24_P122921): −0.652
R*: Ratio to control (BCL2L14, probe A_23_P128050): 0.594 times
log2 [ratio] (BCL2L14, probe A_23_P128050): −0.751
R*: Ratio to control (BCL10, probe A_23_P115286): 0.542 times
log2 [ratio] (BCL10, probe A_23_P115286): −0.883
R*: Ratio to control (BCL10, probe A_24_P19983): 0.571 times
log2 [ratio] (BCL10, probe A_24_P19983): −0.810
R*: Ratio to control (BIK, probe A_23_P404867): 0.298 times
log2 [ratio] (BIK, probe A_23_P404867): −1.748
R*: Ratio to control (BLOC1S2, probe A_23_P23960): 0.396 times
log2 [ratio] (BLOC1S2, probe A_23_P23960): −1.336
R*: Ratio to control (BLOC1S2, probe A_24_P295543): 0.384 times
log2 [ratio] (BLOC1S2, probe A_24_P295543): −1.381
R*: Ratio to control (BMP4, probe A_23_P54144): 1.820 times
log2 [ratio] (BMP4, probe A_23_P54144): 0.864
R*: Ratio to control (BNIP3, probe A_23_P138635): 0.374 times
log2 [ratio] (BNIP3, probe A_23_P138635): −1.418
R*: Ratio to control (BNIP3L, probe A_23_P134925): 0.633 times
log2 [ratio] (BNIP3L, probe A_23_P134925): −0.661
R*: Ratio to control (BTG1, probe A_23_P87560): 0.416 times
log2 [ratio] (BTG1, probe A_23_P87560): −1.265
R*: Ratio to control (C16orf5, probe A_23_P15247): 0.519 times
log2 [ratio] (C16orf5, probe A_23_P15247): −0.947
R*: Ratio to control (CASP1, probe A_23_P202978): 0.641 times
log2 [ratio] (CASP1, probe A_23_P202978): −0.642
R*: Ratio to control (CASP10, probe A_23_P209408): 0.552 times
log2 [ratio] (CASP10, probe A_23_P209408): −0.857
R*: Ratio to control (CASP10, probe A_24_P139993): 0.609 times
log2 [ratio] (CASP10, probe A_24_P139993): −0.716
R*: Ratio to control (CCBE1, probe A_23_P55544): 1.755 times
log2 [ratio] (CCBE1, probe A_23_P55544): 0.811
R*: Ratio to control (CCBE1, probe A_32_P171043): 1.890 times
log2 [ratio] (CCBE1, probe A_32_P171043): 0.918
R*: Ratio to control (CDKN1A, probe A_23_P59210): 0.439 times
log2 [ratio] (CDKN1A, probe A_23_P59210): −1.187
R*: Ratio to control (CDKN1A, probe A_24_P89457): 0.294 times
log2 [ratio] (CDKN1A, probe A_24_P89457): −1.768
R*: Ratio to control (CEBPB, probe A_23_P143242): 0.617 times
log2 [ratio] (CEBPB, probe A_23_P143242): −0.697
R*: Ratio to control (CEBPB, probe A_23_P411296): 0.383 times
log2 [ratio] (CEBPB, probe A_23_P411296): −1.385
R*: Ratio to control (CIDEC, probe A_23_P92025): 0.593 times
log2 [ratio] (CIDEC, probe A_23_P92025): −0.754
R*: Ratio to control (CKLF, probe A_23_P118061): 1.501 times
log2 [ratio] (CKLF, probe A_23_P118061): 0.586
R*: Ratio to control (CKLF, probe A_23_P206396): 1.601 times
log2 [ratio] (CKLF, probe A_23_P206396): 0.679
R*: Ratio to control (CKLF, probe A_24_P215804): 1.551 times
log2 [ratio] (CKLF, probe A_24_P215804): 0.633
R*: Ratio to control (CKS2, probe A_23_P71727): 1.510 times
log2 [ratio] (CKS2, probe A_23_P71727): 0.595
R*: Ratio to control (COL8A1, probe A_23_P69030): 1.999 times
log2 [ratio] (COL8A1, probe A_23_P69030): 0.999
R*: Ratio to control (COL8A1, probe A_23_P211762): 1.643 times
log2 [ratio] (COL8A1, probe A_23_P211762): 0.716
R*: Ratio to control (COL8A1, probe A_24_P139152): 1.703 times
log2 [ratio] (COL8A1, probe A_24_P139152): 0.768
R*: Ratio to control (DDIT3, probe A_23_P21134): 0.210 times
log2 [ratio] (DDIT3, probe A_23_P21134): −2.249
R*: Ratio to control (FGF9, probe A_23_P105803): 1.606 times
log2 [ratio] (FGF9, probe A_23_P105803): 0.684
R*: Ratio to control (GLI2, probe A_23_P500034): 2.060 times
log2 [ratio] (GLI2, probe A_23_P500034): 1.043
R*: Ratio to control (HAND2, probe A_23_P373521): 1.971 times
log2 [ratio] (HAND2, probe A_23_P373521): 0.979
R*: Ratio to control (IFI16, probe A_23_P217866): 0.585 times
log2 [ratio] (IFI16, probe A_23_P217866): −0.773
R*: Ratio to control (IFNG, probe A_23_P151294): 0.611 times
log2 [ratio] (IFNG, probe A_23_P151294): −0.710
R*: Ratio to control (IKBIP, probe A_23_P53467): 0.626 times
log2 [ratio] (IKBIP, probe A_23_P53467): −0.675
R*: Ratio to control (IKBIP, probe A_23_P303210): 0.468 times
log2 [ratio] (IKBIP, probe A_23_P303210): −1.095
R*: Ratio to control (IL1A, probe A_23_P72096): 0.216 times
log2 [ratio] (IL1A, probe A_23_P72096): −2.211
R*: Ratio to control (KNG1, probe A_32_P230808): 0.358 times
log2 [ratio] (KNG1, probe A_32_P230808): −1.484
R*: Ratio to control (LEPR, probe A_24_P231104): 1.659 times
log2 [ratio] (LEPR, probe A_24_P231104): 0.730
R*: Ratio to control (LOX, probe A_23_P122216): 1.637 times
log2 [ratio] (LOX, probe A_23_P122216): 0.711
R*: Ratio to control (MAP3K10, probe A_24_P284523): 0.570 times
log2 [ratio] (MAP3K10, probe A_24_P284523): −0.810
R*: Ratio to control (MAPRE2, probe A_23_P89835): 1.538 times
log2 [ratio] (MAPRE2, probe A_23_P89835): 0.621
R*: Ratio to control (MAPRE2, probe A_24_P193911): 1.666 times
log2 [ratio] (MAPRE2, probe A_24_P193911): 0.736
R*: Ratio to control (MMP2, probe A_23_P163787): 1.578 times
log2 [ratio] (MMP2, probe A_23_P163787): 0.658
R*: Ratio to control (MVC, probe A_24_P38363): 1.686 times
log2 [ratio] (MVC, probe A_24_P38363): 0.754
R*: Ratio to control (NLRP1, probe A_23_P89550): 0.483 times
log2 [ratio] (NLRP1, probe A_23_P89550): −1.048
R*: Ratio to control (NLRP1, probe A_24_P83615): 0.558 times
log2 [ratio] (NLRP1, probe A_24_P83615): −0.841
R*: Ratio to control (NR2F2, probe A_23_P88589): 1.662 times
log2 [ratio] (NR2F2, probe A_23_P88589): 0.733
R*: Ratio to control (NR2F2, probe A_24_P313354): 1.746 times
log2 [ratio] (NR2F2, probe A_24_P313354): 0.804
R*: Ratio to control (NR4A1, probe A_23_P128230): 0.302 times
log2 [ratio] (NR4A1, probe A_23_P128230): −1.727
R*: Ratio to control (NRP1, probe A_24_P135322): 1.664 times
log2 [ratio] (NRP1, probe A_24_P135322): 0.735
R*: Ratio to control (NRP1, probe A_24_P928052): 1.990 times
log2 [ratio] (NRP1, probe A_24_P928052): 0.993
R*: Ratio to control (NTF3, probe A_23_P360797): 0.492 times
log2 [ratio] (NTF3, probe A_23_P360797): −1.024
R*: Ratio to control (NTRK1, probe A_23_P34804): 0.261 times
log2 [ratio] (NTRK1, probe A_23_P34804): −1.936
R*: Ratio to control (OBSCN, probe A_24_P273157): 0.654 times
log2 [ratio] (OBSCN, probe A_24_P273157): −0.613
